Key:
[1] = target: aglycanase; assay: Aglycanase inhibition test (in vitro); type: biochemical; conditions: aglycanase from bovine nasal septum cartilage culture, aglycan-containing polyacrylamide particles, 37° C. for 2.5 hours
Procedure: An aglycanase inhibition test can be conducted by, for example, measuring aglycanase activity in the presence or absence of a test compound according to the method of Nagase et al. (H. Nagase and J. F. Woessner, Analytical Biochemistry, vol. 107, 385-392, 1980).
The enzyme used for measurement of aglycanase activity can be extracted from mammalian cartilage tissue itself or from its cultured medium. Extraction is performed by combining various types of chromatography, and the activity of aglycanase in the purification process can be detected by adding substrate (aglycan) to an eluted fraction and testing whether or not the substrate is cleaved. Whether or not the substrate is cleaved can be determined by performing imnunoblotting for the reaction liquid using an antibody that binds to the epitope, CNLeNIEGE, that is produced by cleavage of aglycan (substrate) by aglycanase (enzyme). It should be noted that antibody that binds to CNLeNIEGE can be prepared according to the method of Sandy et al. (J. D. Sandy et al., Journal of Biological Chemistry, vol. 270, 2550-2556, 1995).
Bovine nasal septum cartilage was cultured for 7 days at 37° C. in the presence of 1 μm retinoic acid in DMEM [containing 20 mM N-2-hydroxyethyl-piperazine-N′-2-ethane sulfonic acid (HEPES), 0.005% bovine serum albumin (BSA), 5 μg/ml insulin-transferrin sodium selenite media supplement, 1% penicillin and 1% streptomycin] while changing the medium once a day. The culture liquid collected from day 3 to day 7 was subjected to chromatography [carrier: Q-sepharose (Pharmacia), mobile phase: 20 mM Tris-HCl buffer (pH 7.2) containing 5 mM calcium chloride] and the fraction that passed through the column was collected. This was then subjected to additional chromatography [carrier: Zn-chelating sepharose (Pharmacia), mobile phase: Tris-HCl buffer (pH 7.2) containing 5 mM calcium chloride and 0.5 M sodium chloride], followed by elution using imidazole as the mobile phase. The fraction of the resulting eluted fractions that was confirmed to have aglycanase activity was collected. Moreover, this was subjected to additional chromatography [carrier: LCA-agarose (Honen Corporation), mobile phase: 20 mM aqueous solution of 2-(N-morpholino)ethanesulfonic acid (pH 6.5) containing 5 mM calcium chloride and 0.25 M sodium chloride], followed by elution using 2-methylmannopyranoside as the mobile phase. The fraction of the resulting eluted fractions that was confirmed to have aglycanase activity was collected, and this fraction was used as the enzyme liquid for measurement of aglycanase activity.
Separate from the above, antibody that binds with CNLeNIEGE was prepared according to the method of Sandy et al. (J. D. Sandy et al., Journal of Biological Chemistry, vol. 270, 2550-2556, 1995), and this antibody was used in immunoblotting to detect aglycanase activity in the above-mentioned purification process of the aglycanase. Immunoblotting was performed in accordance with conventional methods.
Measurement of activity was performed using a modification of the protease activity measurement method that uses polyacrylamide particles of Nagase et al. (H. Nagase and J. F. Woessner, Analytical Biochemistry, vol. 107, 385-392, 1980).
The aglycan used for the substrate was isolated from bovine nasal septum cartilage in accordance with cesium chloride sedimentation equilibrium centrifugation (New Biochemical Experimentation Course, 3, Saccharides II, 4-7, Tokyo Kagaku Dojin Publishing, 1991). By using this aglycan, polyacrylamide particles containing aglycan were prepared in accordance with the method of Nagase et al. (H. Nagase and J. F. Woessner, Analytical Biochemistry, vol. 107, 385-392, 1980). Namely, aglycan (dry weight: 480 mg) was first added to 28 ml of liquid A [1 M Tris-HCl buffer (pH 8.5) containing 0.2% N,N,N′,N′-tetramethylethylenediamine (TEMED)] and the mixture was stirred at 4° C. for 1 hour. […]

[2] = target: T1, MMP-13 (Homo sapiens, UniProt P45452); assay: MMP-13 inhibition test (in vitro); type: biochemical; conditions: recombinant active MMP-13, fluorescent substrate 20 μM, 1 hour at 37° C.
T1 construct: made in house; host or cells: COS-1 cells (vector pcDL-SRα296, culture supernatant)
From the text: MMP-13 exists in chondrocytes and chondrosarcoma cells, and the DNA sequence corresponding to the amino acid sequence of its precursor (proMMP-13) has been reported by Freije et al. (Freije, J. M. P., et al., J. Biol. Chem., vol. 269, 16766-16773, 1994). Therefore, proMMP-13 can be expressed by acquiring cDNA of proMMP-13 from chondrocytes and chondrosarcoma cells in accordance with conventional methods, by incorporating this into an ordinarily used vector, and by introducing this vector into suitable cells to transform the cells.
An MMP-13 inhibition test can be conducted by, for example, treating recombinant proMMP-13 obtained in the above manner with p-aminophenyl-mercuric(II) acetate (APMA) to convert proMMP-13 to active MMP-13, and then using this as enzyme to measure MMP-13 activity in the presence or absence of a test compound using a fluorescent substrate.
mRNA was isolated from human chondrosarcoma HCS-2/8, which is a chondrosarcoma cell line established by Takigawa et al. (Jpn. J. Cancer. Res., vol. 85, 364-371, 1994), in accordance with conventional methods, and cDNA of proMMP-13 was acquired by reverse transcription polymerase chain reaction (RT-PCR). 5′-[…]-3′ (Sequence No. 1 of the Sequence listing) and 5′-[…]-3′ (Sequence No. 2 of the Sequence listing), which contain the restriction enzyme cleavage site sacI or KpnI (portions indicated by underlining) were used for primers. […]
This enzyme solution and substrate (20 μM) were added to 50 mM Tris-HCl buffer (pH 7.5) containing 0.15 M sodium chloride, 10 mM calcium chloride, 0.05% Brij 35 and 0.02% sodium azide to bring the final volume to 0.1 ml, followed by reacting for 1 hour at 37° C. After stopping the reaction by adding 0.1 ml of 3% acetic acid, enzyme activity was determined by measuring with a fluorophotometer (Labsystems Fluoroskan II) at an excitation wavelength of 330 nm and emission wavelength of 390 nm. […]

Row | IC50 [1] [nM] | IC50 [2] [nM] | melting point [°C] | Structure (SMILES)
1 | 7 | – | – | CN(C(CCn1c(=O)[nH]c2ccccc2c1=O)C(=O)NO)S(=O)(=O)c1ccc(Oc2ccccc2)cc1 (racemic) [Example 6, (±)-N-Hydroxy-Nα-methyl-Nα-(4-phenoxybenzenesulfonyl)-2-[2-(quinazolin-2,4-dione-3-yl)ethyl]glycinamide]
2 | 7.6 | – | – | Cc1[nH]c(=O)n(CCC(C(=O)NO)N(C)S(=O)(=O)c2ccc(Oc3ccccc3)cc2)c(=O)c1C (racemic) [Example 18, (±)-2-[2-(5,6-Dimethylpyrimidin-2,4-dione-3-yl)ethyl]-N-hydroxy-Nα-methyl-Nα-(4-phenoxybenzenesulfonyl)glycinamide]
3 | 5.4 | 0.47 | – | CN(C(CCn1c(=O)[nH]c2ccsc2c1=O)C(=O)NO)S(=O)(=O)c1ccc(Oc2ccccc2)cc1 (racemic) [Example 42, (±)-N-Hydroxy-Nα-methyl-Nα-(4-phenoxybenzensulfonyl)-2-[2-(thieno[3,2-d]pyrimidin-2,4-dione-3-yl)ethyl]glycinamide]
4 | – | – | 155 to 156 | CN(C(CCN1C(=O)c2cc(Cl)c(Cl)cc2C1=O)C(=O)NO)S(=O)(=O)c1ccc(Oc2ccccc2)cc1 (racemic) [Example 84, (±)-2-[2-(4,5-Dichlorophthalimido)ethyl]-N-hydroxy-Nα-methyl-Nα-(4-phenoxybenzenesulfonyl)glycinamide]
5 | – | – | 157 to 158 | Cc1ccc2c(c1)C(=O)N(CCC(C(=O)NO)N(C)S(=O)(=O)c1ccc(Oc3ccccc3)cc1)C2=O (racemic) [Example 86, (±)-N-Hydroxy-Nα-methyl-2-[2-(4-methylphthalimido)ethyl]-Nα-(4-phenoxybenzenesulfonyl)glycinamide]
6 | 4.9 | – | – | CN([C@H](CCN1C(=O)c2ccccc2C1=O)C(=O)NO)S(=O)(=O)c1ccc(Oc2ccccc2)cc1 [Example 72, N-Hydroxy-Nα-methyl-Nα-(4-phenoxybenzensulfonyl)-2(R)-(2-phthalimidoethyl)glycinamide]
7 | 3.7 | 0.43 | – | CN([C@H](CCn1c(=O)[nH]c2ccccc2c1=O)C(=O)NO)S(=O)(=O)c1ccc(Oc2cccc(Cl)c2)cc1 [Example 139, Nα-[4-(3-Chlorophenoxy)benzenesulfonyl]-N-hydroxy-Nα-methyl-2(R)-[2-(quinazolin-2,4-dione-3-yl)ethyl]glycinamide]
8 | 2.2 | 0.32 | – | CN([C@H](CCn1c(=O)[nH]c2ccsc2c1=O)C(=O)NO)S(=O)(=O)c1ccc(Oc2cccc(Cl)c2)cc1 [Example 140, Nα-[4-(3-Chlorophenoxy)benzenesulfonyl]-N-hydroxy-Nα-methyl-2(R)-[2-(thieno[3,2-d]pyrimidin-2,4-dione-3-yl)ethyl]glycinamide]
9 | 2.9 | – | – | CN([C@H](CCN1C(=O)c2ccccc2C1=O)C(=O)NO)S(=O)(=O)c1ccc(Oc2cccc(Cl)c2)cc1 [Example 141, Nα-[4-(3-Chlorophenoxy)benzenesulfonyl]-N-hydroxy-Nα-methyl-2(R)-(2-phthalimidoethyl)glycinamide]

— patent publication US6673804B1, “Sulfonamide derivatives” (Sankyo Company, Limited, priority 1998, dated 2004)
